Measurements: patent US20240207427A1, “SELECTIVE DRUG RELEASE FROM INTERNALIZED CONJUGATES OF BIOLOGICALLY ACTIVE COMPOUNDS” (priority 2021, published 2024)
Like-named read-outs stand apart in the source and are kept apart here.

Assays:
Assay type in all cases: cell-based
[1] = test system: non-small-cell lung cancer cells (Calu1); assay: In vitro potency (CellTiter-Glo, 96 h), Calu1; conditions: Homo sapiens, Calu-1, 96 h, read-out: Calu1 IC50
Procedure, shortened: (§1)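 Seed log-phase cells 24 h (RPMI 1640, 20% FBS); add ADC serial dilutions; incubate 96 h, 37 °C; read luminescence; IC50 in ng/mL.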

Ls174T cells = assay: In vitro potency (CellTiter-Glo, 96 h), Ls174T; conditions: Homo sapiens, 96 h, 96 h
Procedure, shortened: (§2)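 Growth inhibition after 96 h at 37 °C with test article, measured by luminescence; cells in RPMI 1640, 20% FBS.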

[2] = test system: pancreatic cancer cells (BxPC3); assay: In vitro potency (CellTiter-Glo, 96 h), BxPC3; conditions: Homo sapiens, BXPC-3, 96 h
Procedure, shortened: (§3)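 IC50 (ng/mL) was derived from growth inhibition of STR-authenticated lines held in culture under 2 months after thawing. Cells were grown in RPMI 1640 plus 20% FBS and treated with ADC dilution series for 96 h at 37 °C.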

[3] = test system: anaplastic large cell lymphoma cells (Karpas299); assay: In vitro potency (CellTiter-Glo, 96 h), Karpas299; conditions: Homo sapiens, KARPAS-299, 96 h
Procedure, shortened: (§4)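 Cells in log-phase growth seeded 24 h in RPMI 1640 with 20% FBS, then exposed to serially diluted ADC or CPT free drug for 96 h at 37 °C. Growth inhibition read by CellTiter-Glo luminescence; IC50 reported in ng/mL or nmol/L.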

[4] = test system: B-lymphocyte cancer cells (SU-DHL4); assay: In vitro potency (CellTiter-Glo, 96 h), SU-DHL-4; conditions: Homo sapiens, SU-DHL-4, 96 h
Procedure, shortened: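 Medium: RPMI 1640 + 20% FBS. Pre-seeding: 24 h. Treatment: ADC or CPT free drug serial dilutions, 96 h, 37 °C. Read-out: luminescence; IC50 in ng/mL and nmol/L.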

melanoma cells (A2058) = assay: In vitro potency (CellTiter-Glo, 96 h), A2058; conditions: Homo sapiens, A2058, 96 h, read-out: A2058 IC50
Procedure, shortened: as §1

[5] = test system: Hodgkin's lymphoma cells (L540cy); assay: In vitro potency (CellTiter-Glo, 96 h), L540cy
Procedure, shortened: as §4

[6] = test system: anaplastic large cell lymphoma cells (DELBVR); assay: In vitro potency (CellTiter-Glo, 96 h), DELBVR
Procedure, shortened: as §4

[7] = test system: acute myeloid leukemia cells (MOLM-13); assay: In vitro potency (CellTiter-Glo, 96 h), MOLM-13; conditions: Homo sapiens, MOLM-13, 96 h
Procedure, shortened: as §3

[8] = test system: anaplastic large cell lymphoma cells (DEL); assay: In vitro potency (CellTiter-Glo, 96 h), DEL
Procedure, shortened: as §2

[9] = test system: renal carcinoma cells (786-O); assay: In vitro potency (CellTiter-Glo, 96 h), 786-O; conditions: Homo sapiens, 786-0, 96 h
Procedure, shortened: as §4

[10] = test system: breast cancer cells (MDA-MB-231); assay: In vitro potency (CellTiter-Glo, 96 h), MDA-MB-231; conditions: Homo sapiens, MDA-MB-231, 96 h
Procedure, shortened: as §4

[11] = Table 28, CPT free drugs, Ls174T cells, CellTiter-Glo, read-out: Ls174T IC50
[12] = Table 28, CPT free drugs, pancreatic cancer cells BxPC3, 96 h, CellTiter-Glo, read-out: BxPC3 IC50
[13] = Table 28, CPT free drugs, anaplastic large cell lymphoma cells Karpas299, 96 h, CellTiter-Glo, read-out: Karpas299 IC50
[14] = Table 28, CPT free drugs, B-lymphocyte cancer cells SU-DHL4, 96 h, CellTiter-Glo, read-out: SU-DHL-4 IC50
[15] = Table 28, CPT free drugs, melanoma cells A2058, 96 h, CellTiter-Glo
[16] = Table 28, CPT free drugs, Hodgkin's lymphoma cells L540cy, CellTiter-Glo, read-out: L540cy IC50
[17] = Table 28, CPT free drugs, anaplastic large cell lymphoma cells DELBVR, CellTiter-Glo, read-out: DELBVR IC50
[18] = Table 28, CPT free drugs, acute myeloid leukemia cells MOLM-13, 96 h, CellTiter-Glo, read-out: MOLM-13 IC50
[19] = Table 28, CPT free drugs, anaplastic large cell lymphoma cells DEL, CellTiter-Glo, read-out: DEL IC50
[20] = Table 28, CPT free drugs, renal carcinoma cells 786-O, 96 h, CellTiter-Glo, read-out: 786-O IC50
[21] = Table 28, CPT free drugs, breast cancer cells MDA-MB-231, 96 h, CellTiter-Glo, read-out: MDAMB231 IC50
[22] = LS174T, read-out: Ls174T IC50, camptothecin free drug, 96 h
[23] = read-out: BxPC3 IC50, camptothecin free drug, 96 h
[24] = read-out: Karpas299 IC50, camptothecin free drug, 96 h
[25] = read-out: SU-DHL-4 IC50, camptothecin free drug, 96 h
[26] = read-out: L540cy IC50, camptothecin free drug, 96 h
[27] = read-out: DELBVR IC50, camptothecin free drug, 96 h
[28] = read-out: MOLM-13 IC50, camptothecin free drug, 96 h
[29] = read-out: DEL IC50, camptothecin free drug, 96 h
[30] = read-out: 786-O IC50, camptothecin free drug, 96 h
[31] = read-out: MDAMB231 IC50, camptothecin free drug, 96 h

Structure (SMILES)	IC50 [1] [nM]	IC50 (melanoma cells (A2058)) [nM]	IC50 (Ls174T cells; [22]) [nM]	IC50 [2, 23] [nM]	IC50 [3, 24] [nM]	IC50 [4, 25] [nM]	IC50 [5, 26] [nM]	IC50 [6, 27] [nM]	IC50 [7, 28] [nM]	IC50 [8, 29] [nM]	IC50 [9, 30] [nM]	IC50 [10, 31] [nM]	further results
CC[C@@]1(O)C(=O)OCc2c1cc1n(c2=O)Cc2c-1nc1cc(F)c(C)c(C=C(C)C)c1c2CN [Compound 6, (S)-11-(aminomethyl)-4-ethyl-8-fluoro-4-hydroxy-9-methyl-10-(2-methylprop-1-en-1-yl)-1,12-dihydro-14H-pyrano[3′,4′:6,7]indolizino[1,2-b]quinoline-3,14(4H)-dione]	17	5	–	–	–	–	–	–	–	–	–	–	IC50 (Ls174T cells; LS174T, read-out: Ls174T IC50, Table 28, CPT free drugs, Ls174T cells, CellTiter-Glo): 21 nM; IC50 ([2]; read-out: BxPC3 IC50, Table 28, CPT free drugs, pancreatic cancer cells BxPC3, 96 h, CellTiter-Glo): 8 nM; IC50 ([3]; read-out: Karpas299 IC50, Table 28, CPT free drugs, anaplastic large cell lymphoma cells Karpas299, 96 h, CellTiter-Glo): 4 nM; IC50 ([4]; read-out: SU-DHL-4 IC50, Table 28, CPT free drugs, B-lymphocyte cancer cells SU-DHL4, 96 h, CellTiter-Glo): 2 nM; IC50 ([5]; read-out: L540cy IC50, Table 28, CPT free drugs, Hodgkin's lymphoma cells L540cy, CellTiter-Glo): 4 nM; IC50 ([6]; read-out: DELBVR IC50, Table 28, CPT free drugs, anaplastic large cell lymphoma cells DELBVR, CellTiter-Glo): 3 nM; IC50 ([7]; read-out: MOLM-13 IC50, Table 28, CPT free drugs, acute myeloid leukemia cells MOLM-13, 96 h, CellTiter-Glo): 4 nM; IC50 ([8]; read-out: DEL IC50, Table 28, CPT free drugs, anaplastic large cell lymphoma cells DEL, CellTiter-Glo): 1 nM; IC50 ([9]; read-out: 786-O IC50, Table 28, CPT free drugs, renal carcinoma cells 786-O, 96 h, CellTiter-Glo): 5 nM; IC50 ([10]; read-out: MDAMB231 IC50, Table 28, CPT free drugs, breast cancer cells MDA-MB-231, 96 h, CellTiter-Glo): 7 nM
CC[C@@]1(O)C(=O)OCc2c1cc1n(c2=O)Cc2c-1nc1cc(F)c(C)c(C3=CCOC3)c1c2CN [Compound 6d]	–	–	–	–	–	–	–	–	–	–	–	–	IC50 ([1]; Table 28, CPT free drugs, non-small-cell lung cancer cells Calu1, 96 h, CellTiter-Glo): 43 nM; IC50 (Ls174T cells; [11]): 31 nM; IC50 [2, 12]: 15 nM; IC50 [3, 13]: 12 nM; IC50 [4, 14]: 4 nM; IC50 (melanoma cells (A2058); [15]): 13 nM; IC50 [5, 16]: 11 nM; IC50 [6, 17]: 12 nM; IC50 [7, 18]: 6 nM; IC50 [8, 19]: 3 nM; IC50 [9, 20]: 23 nM; IC50 [10, 21]: 21 nM
CC[C@@]1(O)C(=O)OCc2c1cc1n(c2=O)Cc2c-1nc1cc(F)c(C)c(-c3ccc(CO)s3)c1c2CN [Compound 6e]	155	–	–	–	–	–	–	–	–	–	–	–	IC50 (Ls174T cells; [11]): 17 nM; IC50 [2, 12]: 65 nM; IC50 [3, 13]: 31 nM; IC50 [4, 14]: 7 nM; IC50 (melanoma cells (A2058); [15]): 11 nM; IC50 [5, 16]: 18 nM; IC50 [6, 17]: 4 nM; IC50 [7, 18]: 17 nM; IC50 [8, 19]: 4 nM; IC50 [9, 20]: 29 nM; IC50 [10, 21]: 57 nM
CC[C@@]1(O)C(=O)OCc2c1cc1n(c2=O)Cc2c-1nc1cc3c(cc1c2CN(C)C)OCO3 [Compound 7ae]	555	11	46	48	42	23	20	14	165	8	39	164	–
CC[C@@]1(O)C(=O)OCc2c1cc1n(c2=O)Cc2c-1nc1cc3c(cc1c2CNCCCS(C)(=O)=O)OCO3 [Compound 7c]	91	2	4	5	5	3	2	2	4	1	5	31	–
CC[C@@]1(O)C(=O)OCc2c1cc1n(c2=O)Cc2c-1nc1cc3c(cc1c2CNCCS(N)(=O)=O)OCO3 [Compound 7d]	1000	10	18	38	39	20	16	13	61	8	37	195	–
CC[C@@]1(O)C(=O)OCc2c1cc1n(c2=O)Cc2c-1nc1cc3c(cc1c2CNCCCS(N)(=O)=O)OCO3 [Compound 7e]	503	5	17	21	27	16	13	14	257	8	25	124	–
CC[C@@]1(O)C(=O)OCc2c1cc1n(c2=O)Cc2c-1nc1cc3c(cc1c2CNCC(O)CN1CCCCC1)OCO3 (stereo partly drawn) [Compound 7g]	486	8	18	29	29	18	14	14	56	8	33	116	–
CC[C@@]1(O)C(=O)OCc2c1cc1n(c2=O)Cc2c-1nc1cc3c(cc1c2CNCCCO)OCO3 [Compound 7o]	839	16	25	47	42	27	26	19	115	10	52	275	–
CC[C@@]1(O)C(=O)OCc2c1cc1n(c2=O)Cc2c-1nc1cc3c(cc1c2CNC1CCN(C(=O)OC(C)(C)C)CC1)OCO3 [Compound 7q]	–	–	–	–	–	–	–	–	–	–	–	–	IC50 ([1]; camptothecin free drug, 96 h): 1000 nM; IC50 (Ls174T cells; LS174T, camptothecin free drug, read-out: Ls174T IC50): 24 nM; IC50 ([2]; camptothecin free drug, 96 h, read-out: BxPC3 IC50): 28 nM; IC50 ([3]; camptothecin free drug, 96 h, read-out: Karpas299 IC50): 26 nM; IC50 ([4]; camptothecin free drug, 96 h, read-out: SU-DHL-4 IC50): 17 nM; IC50 (melanoma cells (A2058); camptothecin free drug, 96 h): 7 nM; IC50 ([5]; camptothecin free drug, read-out: L540cy IC50): 15 nM; IC50 ([6]; camptothecin free drug, read-out: DELBVR IC50): 13 nM; IC50 ([7]; camptothecin free drug, 96 h, read-out: MOLM-13 IC50): 33 nM; IC50 ([8]; camptothecin free drug, read-out: DEL IC50): 6 nM; IC50 ([9]; camptothecin free drug, 96 h, read-out: 786-O IC50): 26 nM; IC50 ([10]; camptothecin free drug, 96 h, read-out: MDAMB231 IC50): 131 nM
CC[C@@]1(O)C(=O)OCc2c1cc1n(c2=O)Cc2c-1nc1cc3c(cc1c2CNCC(O)CO)OCO3 (stereo partly drawn) [Compound 7x]	> 1000	18	> 1000	79	54	41	32	20	574	16	88	523	–
